Measurements as given in US9221873B1, “Short-chain peptide capable of controlling spermatozoa fertilization performance” (NATIONAL TAIWAN UNIVERSITY, priority 2014, dated 2015).

Columns and labels:
mouse spermatozoa = test: Measuring the [Ca2+]i in spermatozoa (Fluo-4 AM fluorescence); assay type: cell-based; conditions: FIG. 1; for [Ca2+]i increases by (change in fluorescent intensity, (F'-F0)/F0): plateau phase 27-30 minutes
Protocol: Spermatozoa are prepared for measuring changes in the intracellular concentration of free calcium ions ([Ca^2]i). Modified HEPES medium (120 mM of NaCl, 2 mM of KCl, 1.2 mM of MgSO4.7H2O, 0.36 mM of NaH2PO4, 15 mM of NaHCO3, 10 mM of HEPES, 5.6 mM of glucose, 1.1 mM of sodium pyruvate, 18.5 mM of sucrose, 100 IU/ml of penicillin, and 100 μg/ml of streptomycin), spermatozoa culture medium, is pre-incubated in incubator with 5% CO2 at 37° C. for 24 hours before using to adjust the medium pH ranges between 7.3 and 7.4. The cauda epididymis is cut into several pieces, incubated in the medium at 37° C. for 20 minutes, put on 1 ml of 75% (v/v) Percoll solution, and centrifuged at 300×g for 30 minutes to isolate higher motility spermatozoa for [Ca^2+]i measurement experiment.
Changes in the [Ca^2+]i in uncapacitated spermatozoa are measured. Spermatozoa (1×10^8 cells per milliliter) is incubated in modified HEPES medium, containing 15 μM of Fluo-4 AM, in the darkness at 37° C. for 45 minutes. Fluo-4 AM is a fluorescent Ca^2+ indicator capable of penetrating cell membranes. Then, the spermatozoa are washed thrice by 100×g centrifugation at room temperature for 5 minutes to remove the residual dye. The sperm cell pellet is suspended in a modified HEPES medium, containing 1.8 mM of CaCl2, and the cell concentration is adjusted to 5×10^6 cells per milliliter. […] The changes of fluorescent intensity are measured with the Synergy H1 Hybrid Multi-Mode Microplate Reader (Bio-Tek, Winooski, Vt., USA) at 37° C. via an excitation wavelength of 485 nm and an emission wavelength of 520 nm. […] Changes in [Ca^2+]i are calculated with the equation (F′−F0)/F0 (%), wherein F′ denotes the fluorescent intensity measured at different time points during the experiment, and F0 denotes the average of fluorescent intensity measured 0 to 5 minutes before adding kisspeptin-10. Last but not least, the average change in the fluorescent intensity during the plateau phase (27˜30 minutes) of [Ca^2+]i is calculated.

spermatozoa = test: IVF test (in vitro fertilization, success fertilization rate); assay type: cell-based, mouse; conditions: spermatozoa incubated with 50 μM during capacitation, 2 hours, 37° C.; control group larger than 80%; binds KISS1R; FIG. 2
Protocol: In the in vitro fertilization experiment, spermatozoa isolated from cauda epididymis are incubated in HTF (human tubal fluid) medium (Merck Millipore) at 37° C. for 20 minutes and then diluted the cell concentration to 1×10^6 spermatozoa per milliliter.
The uncapacitated spermatozoa is incubated in HTF medium and then treated with peptide 234 during capacitation step, such that kisspeptin signal effects on final fertilization step is evaluated. The 0.9% saline is added to the control group to substitute for the peptide 234 solution. In detail, spermatozoa (1×10^6 cell per milliliter) are incubated in a capacitation-condition medium with 50 μM peptide 234 or saline at 37° C. for 2 hours. Then, the fertilization process begins with the introduction of cumulus-oocyte complexes (COCs) into the culture medium and incubation at 37° C. for 6 hours. The oocytes are washed thrice and incubated in KSOM+AAs culture medium (potassium simplex optimized medium plus amino acids, Merk Millipore) for 24 hours. The success fertilization rate is calculated according to the ratio of the number of two-cell embryos to the total number of oocytes. […]

| Substance | [Ca2+]i increases by (change in fluorescent intensity, (F'-F0)/F0) (mouse spermatozoa; mouse spermatozoa treated with 50 μM) [%] | [Ca2+]i increases by (change in fluorescent intensity, (F'-F0)/F0) (mouse spermatozoa; mouse spermatozoa treated with 100 μM) [%] | [Ca2+]i change (fluorescent intensity), in words (mouse spermatozoa; mouse spermatozoa treated with 25, 50 and 100 μM) | success fertilization rate (two-cell embryos / total oocytes) (spermatozoa) |
| --- | --- | --- | --- | --- |
| kisspeptin 10: short-chain peptide kisspeptin-10 (SEQ ID NO:6), rodent expressed kisspeptin, purchased from Kelowna international Scientific (YNWNSFGLRY; Rodent expressed kisspeptin-10) | 85.5±14.4 | 129.9±24.9 | increases |  |
| peptide 234: kisspeptin antagonist peptide 234 (SEQ ID NO:10), binds to KISS1R on the spermatozoa (ANWNGFGWRF; Kisspeptin antagonist peptide 234) |  |  |  | less than 60% |
